Source: patent publication US20030215462A1, “Use of UGT inhibitors to increase bioavailability” (priority 2001, published 2003)
Several values for one entry are separate records, joined by “and”; a condition that tells them apart may be missing. Equal values may be shown once.

Legend:
[1] = target: T1, UGT enzymes of human liver microsomes (Homo sapiens, UniProt P16662); experiment: Inhibition of zidovudine glucuronidation in human liver microsomes; assay type: biochemical; conditions: liver lot 062101
T1 construct: residual metabolism (percentage of control), zidovudine glucuronidation; other: liver lot 062101; residual metabolism (percentage of control), zidovudine glucuronidation; residual metabolism (percentage of control)
T1 sequence (P16662 1-529): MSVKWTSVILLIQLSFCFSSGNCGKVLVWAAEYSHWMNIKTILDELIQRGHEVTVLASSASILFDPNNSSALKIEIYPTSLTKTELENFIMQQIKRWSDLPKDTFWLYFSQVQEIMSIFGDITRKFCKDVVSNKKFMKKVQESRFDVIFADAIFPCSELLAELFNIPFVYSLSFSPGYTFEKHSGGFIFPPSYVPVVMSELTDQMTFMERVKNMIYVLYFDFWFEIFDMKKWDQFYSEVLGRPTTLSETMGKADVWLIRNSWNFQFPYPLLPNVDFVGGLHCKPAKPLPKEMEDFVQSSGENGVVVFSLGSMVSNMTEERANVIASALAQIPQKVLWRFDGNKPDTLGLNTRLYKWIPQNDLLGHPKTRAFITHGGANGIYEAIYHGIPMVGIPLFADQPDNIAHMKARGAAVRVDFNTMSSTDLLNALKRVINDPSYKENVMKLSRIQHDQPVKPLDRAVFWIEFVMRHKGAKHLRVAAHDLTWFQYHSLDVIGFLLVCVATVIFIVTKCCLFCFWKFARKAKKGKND
Description: Compounds were eluted using a binary solvent gradient system where solvent A was dilute phosphoric acid (pH 3) and solvent B was acetonitrile.
Standardized incubations utilized 500 μM zidovudine substrate, 1 mg/ml microsomal protein, 5 mM UDPGA and a 30 min incubation time. […] Int.

[2] = system: UGT enzymes of pooled human jejunum microsomes; experiment: Inhibition of 2ME2 glucuronidation (MG1) in pooled human jejunum microsomes; assay type: biochemical; conditions: jejunum HJ61, 2ME2 50 μM
Excerpt: Compounds were eluted using a binary solvent gradient system where solvent A was dilute phosphoric acid (pH 3) and solvent B was 80:20 acetonitrile-methanol. […] Detection was at 280 nm.

UGT1A3 = target: T2, UGT1A3 (Homo sapiens, UniProt P35503); experiment: Inhibition of raloxifene glucuronidation by recombinant UGT1A3 Supersomes; conditions: for activity at 15 min, 25 µM / activity at 15 min, 50 µM / activity at 15 min, 10 µM: human; for activity at 15 min, 25 µM: inhibitor 25 μM; for activity at 15 min, 50 µM: inhibitor 50 μM; for inhibition of raloxifene glucuronidation, in words: UGT1A3; for activity at 15 min, 10 µM: inhibitor 10 μM
T2 sequence (P35503 29-534): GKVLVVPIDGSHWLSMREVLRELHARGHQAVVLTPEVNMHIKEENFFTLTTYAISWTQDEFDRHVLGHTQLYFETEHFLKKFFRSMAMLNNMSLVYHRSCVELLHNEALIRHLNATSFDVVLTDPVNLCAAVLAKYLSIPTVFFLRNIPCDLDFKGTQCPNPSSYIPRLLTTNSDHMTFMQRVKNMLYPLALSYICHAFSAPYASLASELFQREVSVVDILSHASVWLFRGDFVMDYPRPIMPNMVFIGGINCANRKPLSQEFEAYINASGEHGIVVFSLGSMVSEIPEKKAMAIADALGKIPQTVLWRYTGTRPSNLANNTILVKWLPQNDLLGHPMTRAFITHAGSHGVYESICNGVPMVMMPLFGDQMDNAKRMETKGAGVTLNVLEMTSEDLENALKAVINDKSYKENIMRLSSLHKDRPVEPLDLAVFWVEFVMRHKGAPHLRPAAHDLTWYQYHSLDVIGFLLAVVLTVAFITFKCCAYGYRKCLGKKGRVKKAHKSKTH
Description: (§1) Compounds were eluted using a binary solvent gradient system. Solvent A was water brought to pH 8 with NH4OH. Solvent B was methanol. Solvent flow rate was 1 ml/min and the column temperature was maintained at 50° C. Detection was at 280 nm. […] The system was then returned to the initial conditions and equilibrated for 3 min.

UGT1A8 = target: T3, UGT1A8 (Homo sapiens, UniProt Q9HAW9); experiment: Inhibition of raloxifene glucuronidation by recombinant UGT1A8 Supersomes; conditions: for activity at 15 min, 50 µM: human, Supersomes with recombinant human UGT1A8, pH 7.5, probe raloxifene 50 μM, inhibitor 50 μM
T3 sequence (Q9HAW9 26-530): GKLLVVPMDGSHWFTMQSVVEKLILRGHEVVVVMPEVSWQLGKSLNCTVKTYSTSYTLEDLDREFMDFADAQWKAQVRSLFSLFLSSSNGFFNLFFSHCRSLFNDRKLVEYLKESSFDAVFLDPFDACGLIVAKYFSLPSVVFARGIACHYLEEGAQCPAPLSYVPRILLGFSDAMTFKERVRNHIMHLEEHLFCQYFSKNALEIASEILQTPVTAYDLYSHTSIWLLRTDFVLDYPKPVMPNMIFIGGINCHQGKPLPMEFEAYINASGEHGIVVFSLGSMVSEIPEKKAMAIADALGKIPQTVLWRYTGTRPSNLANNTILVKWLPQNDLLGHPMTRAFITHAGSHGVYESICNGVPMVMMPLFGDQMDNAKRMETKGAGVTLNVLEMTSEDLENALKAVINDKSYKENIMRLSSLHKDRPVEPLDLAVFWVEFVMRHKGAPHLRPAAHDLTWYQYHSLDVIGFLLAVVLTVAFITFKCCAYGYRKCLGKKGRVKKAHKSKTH
Description: as §1

UGT1A10 = target: T4, UGT1A10 (Homo sapiens, UniProt Q9HAW8); experiment: Inhibition of raloxifene glucuronidation by recombinant UGT1A10 Bacculosomes; conditions: for activity at 15 min, 25 µM / activity at 15 min, 50 µM: human, Bacculosomes with recombinant human UGT1A10, pH 7.5, probe raloxifene 50 μM; for activity at 15 min, 25 µM: inhibitor 25 μM; for activity at 15 min, 50 µM: inhibitor 50 μM; for inhibition of raloxifene glucuronidation, in words: UGT1A10
T4 sequence (Q9HAW8 26-530): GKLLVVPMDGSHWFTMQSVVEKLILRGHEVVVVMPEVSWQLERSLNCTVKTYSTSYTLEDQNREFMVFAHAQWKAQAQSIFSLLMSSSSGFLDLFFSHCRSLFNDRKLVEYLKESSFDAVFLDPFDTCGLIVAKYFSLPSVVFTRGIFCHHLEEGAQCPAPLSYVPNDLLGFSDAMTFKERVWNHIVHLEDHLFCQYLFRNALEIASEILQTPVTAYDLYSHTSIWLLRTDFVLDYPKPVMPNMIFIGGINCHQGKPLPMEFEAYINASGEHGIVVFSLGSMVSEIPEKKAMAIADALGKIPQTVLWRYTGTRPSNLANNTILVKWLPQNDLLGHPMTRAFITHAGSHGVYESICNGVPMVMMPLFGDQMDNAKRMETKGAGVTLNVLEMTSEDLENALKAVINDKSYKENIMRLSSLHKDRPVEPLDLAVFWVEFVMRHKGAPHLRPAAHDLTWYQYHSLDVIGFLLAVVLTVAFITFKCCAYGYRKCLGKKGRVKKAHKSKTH
Description: as §1

[3] = Supersomes with recombinant human UGT1A3, pH 7.5, probe raloxifene 50 μM, formation of glucuronide G1, % of control metabolism, raloxifene G1, UGT1A3
[4] = Supersomes with recombinant human UGT1A3, pH 7.5, probe raloxifene 50 μM, formation of glucuronide G2, % of control metabolism, raloxifene G2, UGT1A3
[5] = recombinant UGT1A3 Supersomes, pH 7.5, probe raloxifene 50 μM (formation of glucuronide G1), Inhibition of raloxifene glucuronidation, G1, UGT1A3, G1, raloxifene 50 μM, 250 μg/ml Supersomes, 1 mM UDPGA, 15 min
[6] = recombinant UGT1A3 Supersomes, pH 7.5, probe raloxifene 50 μM (formation of glucuronide G2), Inhibition of raloxifene glucuronidation, G2, UGT1A3, G2, raloxifene 50 μM, 250 μg/ml Supersomes, 1 mM UDPGA, 15 min
[7] = formation of glucuronide G1, % of control metabolism, raloxifene G1, UGT1A8
[8] = formation of glucuronide G2, % of control metabolism, raloxifene G2, UGT1A8
[9] = formation of glucuronide G1, % of control metabolism, raloxifene G1, UGT1A10
[10] = formation of glucuronide G2, % of control metabolism, raloxifene G2, UGT1A10

SMILES | residual metabolism (percentage of control), zidovudine glucuronidation ([1]; inhibitor 100 μM) | residual metabolism (percentage of control), zidovudine glucuronidation ([1]; inhibitor 200 μM) | residual metabolism (% of control), 2ME2 MG1 ([2]; inhibitor 25 μM) | residual metabolism (% of control), 2ME2 MG1 ([2]; inhibitor 50 μM) | residual metabolism (% of control), 2ME2 MG1 ([2]; inhibitor 100 μM) | activity at 15 min, 25 µM (UGT1A3; [3]) | activity at 15 min, 50 µM (UGT1A3; [3]) | activity at 15 min, 25 µM (UGT1A3; [4]) | activity at 15 min, 50 µM (UGT1A3; [4]) | activity at 15 min, 25 µM (UGT1A3; [5]) | activity at 15 min, 50 µM (UGT1A3; [5]) | activity at 15 min, 25 µM (UGT1A3; [6]) | activity at 15 min, 50 µM (UGT1A3; [6]) | activity at 15 min, 50 µM (UGT1A8; [7]) | activity at 15 min, 50 µM (UGT1A8; [8]) | activity at 15 min, 50 µM (UGT1A10; [9]) | activity at 15 min, 50 µM (UGT1A10; [10]) | inhibition of raloxifene glucuronidation, in words (UGT1A3) | activity at 15 min, 10 µM (UGT1A3; [3]) | activity at 15 min, 10 µM (UGT1A3; [4]) | also measured
O=C(O[C@@H]1Cc2c(O)cc(O)cc2O[C@H]1c1cc(O)c(O)c(O)c1)c1cc(O)c(O)c(O)c1 [Gallocatechin gallate] | 56 (1) % and 59 (3) % | 49 (1) % and 40 (2) % | 51 (2) % | 31 (1) % | 9 (1) % | 65% | 39% | 70% | 38% | 64% | 39% | 70% | 38% | 36% | 35% | 49% | 48% | – | – | – | residual metabolism (percentage of control), zidovudine glucuronidation ([1]; inhibitor 50 μM): 66 (3) %; residual metabolism (% of control), 2ME2 MG1 ([2]; inhibitor 10 μM): 69 (3) %; activity at 15 min, 25 µM (UGT1A10; [9]): 64%; activity at 15 min, 25 µM (UGT1A10; [10]): 68%
CCCCCCCCOC(=O)c1cc(O)c(O)c(O)c1 [Octyl gallate] | – | – | – | 121 (7) % | 58 (3) % | 28% | 12% | 31% | 13% | 28% | 12% | 31% | 13% | 116% | 95% | 63% | 71% | excellent inhibitor | 61% | 60% | residual metabolism (percentage of control), zidovudine glucuronidation ([1]; inhibitor 500 μM): 54 (3) %; residual metabolism (percentage of control), zidovudine glucuronidation ([1]; inhibitor 1000 μM): 17 (1) %; activity at 15 min, 10 µM (UGT1A3; [5]): 61%; activity at 15 min, 10 µM (UGT1A3; [6]): 60%; inhibition of raloxifene glucuronidation, in words (UGT1A10): very poor inhibitor
O=c1c(O)c(-c2ccc(O)c(O)c2)oc2cc(O)cc(O)c12 [Quercetin] | 94 (8) % | 64 (4) % | 56 (2) % | 44 (2) % | 19 (1) % | 53% | 28% | 49% | 25% | 52% | 28% | 49% | 25% | – | – | – | – | good inhibitor | 81% | 56% | activity at 15 min, 10 µM (UGT1A3; [5]): 72%; activity at 15 min, 10 µM (UGT1A3; [6]): 73%; inhibition of raloxifene glucuronidation, in words (UGT1A8; UGT1A8): ineffective; inhibition of raloxifene glucuronidation, in words (UGT1A10): only a modest effect
